17 molecules from PubChem BioAssay (NCI) can be followed below.

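Five compound concentrations were applied to cells in 96-well plates for 48 hours; endpoints were derived by simple linear interpolation of the resulting dose-response curve. Here, GI50 denotes the concentration required for 50% inhibition of growth. TGI is the concentration that stops growth completely.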 Where only a bound is given, the exact number is not on record here.

Holding throughout (assay): growth of human tumour cells (NCI), 48 h
Test [1] has as its system SF-295 CNS.
In test [2] the test system is UACC-62 melanoma.
For test [3], the system named is SR leukemia.
Test [4] concerns HCC-2998 colon.
Test [5] relates to UO-31 renal.
Test [6] has as its system SW-620 colon.
The test system of test [7] is SNB-19 CNS.
Test [8] deals with SNB-75 CNS.
Test [9] relates to MDA-MB-435.
Test [10] concerns EKVX NSCLC.

As for `Cn1cc(C2=C(c3cc[nH]c3)C(=O)NC2=O)c2ccccc21`, the GI50 in test [1] was above 25 µM; in test [2], above 25 µM; in [3] it was 12 µM; in test [4] it was above 25 µM; in test [5], above 18.5 µM; in [6], above 25 µM. Also, the GI50 was above 25 µM in [7], 1.96 µM in [8] and 19.7 µM in test [9]. Moreover, the TGI in test [1], in [2], in [3], in test [4], in [5] and in test [6] was above 25 µM in each case. Moreover, the TGI in test [7], in test [8] and in test [9] was above 25 µM each time.
For the molecule `COc1cccc(N2CCN(c3ncnc4cc[nH]c34)CC2)c1`, the GI50 in test [1] is 1.57 µM; in test [2], 6.05 µM; in test [3] it was 1.73 µM; in test [10], 0.94 µM; in [4], 7.19 µM; in test [5], 7.37 µM. Further, the GI50 in [6] was 68.6 µM; in [7], above 100 µM; in test [8], 15.1 µM; in test [9], 2.73 µM. For the same molecule, the TGI in [1] is 43 µM; in test [2], 39.8 µM; in test [3], above 100 µM; in test [10], above 100 µM; in test [4] it was above 100 µM; in test [5], above 100 µM. Also, the TGI was above 100 µM in test [6], above 100 µM in test [7], 60.4 µM in [8] and 19 µM in test [9].
For `COC(=O)c1c2c(c(C)[n+]([O-])c1C)C(=O)C(NCc1ccc(F)cc1)=CC2=O`, the GI50 in test [1] was 1.42 µM; in [2], 1.25 µM; in [3] it was 1.7 µM; in [10], 1.66 µM; in test [4] it was 1.79 µM; in test [5] it was 1.67 µM. Also, the GI50 in test [6] was 1.17 µM; in test [7], 2.1 µM; in test [8], 2.23 µM; in [9], 0.582 µM. Moreover, the TGI in [1] is 3 µM; in [2], 2.65 µM; in test [3], above 100 µM; in test [10], 4.14 µM; in test [4] it was 4.57 µM; in test [5], 3.77 µM. In addition, the TGI stood at 3.2 µM in [6], 5.2 µM in [7], 5.96 µM in test [8] and 1.84 µM in [9].
In the case of `CC(=O)O[C@@H]1C2=C(C)C3(CC3)[C@@](C)(O)C(=O)C2=C[C@@]1(C)CO`, the GI50 is 0.406 µM in [1]; 1.71 µM in [2]; 0.271 µM in [3]; 2.66 µM in [10]; 0.496 µM in [4]; 0.355 µM in test [6]. Besides, the GI50 was 1.08 µM in test [7], 0.217 µM in test [8] and 0.48 µM in [9]. Moreover, the TGI in test [1] was 9.87 µM; in test [2], 3.59 µM; in [3] it was above 100 µM; in [10], 7.56 µM; in test [4], 1.89 µM; in test [6] it was above 100 µM. Besides, the values for the TGI in test [7], in test [8] and in test [9] were 9.6 µM, 1.38 µM and 1.72 µM, respectively.
For `C=CCC(N[C@H](CO)c1ccccc1)c1ccccn1` (some centres not stated), the GI50 in test [1], in [2], in test [3], in test [10], in [4] and in test [5] was above 100 µM in each case. Also, the GI50 in [6], in test [8] and in test [9] was above 100 µM each time. Besides, the TGI in test [1], in test [2], in [3], in test [10], in test [4] and in [5] was above 100 µM each time. For the same molecule, the TGI in test [6], in test [8] and in test [9] was above 100 µM throughout.
As to `C#CCOc1cccc(Nc2ncnc3cc(NC(=O)C=C)ccc23)c1`, the GI50 in [1] was 14.6 µM; in test [2] it was 9.82 µM; in test [3] it was 2.11 µM; in test [10], 14.8 µM; in test [4], 11.6 µM; in [5], 3.51 µM. Further, the GI50 in test [6] is 3.15 µM; in test [7] it was 23.8 µM; in test [9], 2.08 µM. In addition, the TGI was above 100 µM in test [1]; above 100 µM in [2]; above 100 µM in test [3]; above 100 µM in [10]; 60.4 µM in [4]; 75.6 µM in test [5]. For the same molecule, the TGI in test [6] is 27.8 µM; in [7], above 100 µM; in test [9], above 100 µM.
As to `COc1ccc(/C=C2\COc3ccc(O)c(O)c3C2=O)cc1OC`, the GI50 in [1] was 2.7 µM; in test [2] it was 1.19 µM; in test [3], 0.537 µM; in [10], 2.76 µM; in [4] it was 1.76 µM; in test [5], 0.789 µM. Besides, the GI50 in test [7] was 2.06 µM; in test [8], 1.98 µM; in test [9], 1.32 µM. The TGI in test [1] was 7.18 µM; in test [2], 2.86 µM; in test [3] it was 10.7 µM; in [10], 18.8 µM; in [4], 3.31 µM; in test [5] it was 2.19 µM. Besides, the TGI in test [7] came to 7.43 µM; in test [8], 29.1 µM; in test [9], 3.78 µM.
On to `CC(C)c1[nH]nc2c(NCc3ccc(-c4ccccn4)cc3)nc(SCCN(C)C)nc12`, for which the GI50 in [1] is 0.0799 µM; in test [2], 0.0427 µM; in test [3], below 0.0294 µM; in test [10], 0.0494 µM; in test [4], below 0.0185 µM; in test [6] it was below 0.0135 µM. In addition, the GI50 in test [7] was 0.0244 µM; in test [8] it was 0.0223 µM; in test [9], below 0.0176 µM. The TGI in test [1] amounted to 1.92 µM; in test [2], 0.4 µM; in [3], 3.21 µM; in test [10] it was 2.54 µM; in [4], 0.844 µM; in test [6], 12.1 µM. Moreover, the values for the TGI in [7], in test [8] and in test [9] were 12.6 µM, 0.138 µM and 0.797 µM, respectively.
For `Cc1c(Cl)cccc1NC(=O)c1sc2nc3c(cc2c1N)C(=O)CCC3`, the GI50 in [1] was 0.0429 µM; in test [2], 0.0502 µM; in [3], 0.0725 µM; in test [4], 0.201 µM; in [5], 0.0682 µM; in [6], 0.0484 µM. For the same molecule, the GI50 in test [7] is 0.0698 µM; in [8], 0.0385 µM; in test [9] it was 0.0203 µM. The TGI in [1] is above 100 µM; in test [2], above 100 µM; in test [3], above 100 µM; in [4], above 60 µM; in test [5] it was above 91.5 µM; in test [6], above 100 µM. Moreover, the TGI in test [7] was above 100 µM; in [8], 20.9 µM; in test [9], 0.0488 µM.
For the molecule `Cc1c(NC(=O)Nc2c(Cl)cccc2Cl)c(=O)n(-c2ccccc2)n1C`, the TGI in test [1], in [2], in test [3], in [10], in test [5] and in test [6] was above 100 µM throughout. The TGI in test [7], in test [8] and in test [9] was above 100 µM in each case.
Regarding `Cc1ccnc2c(NC(C)CCCN)cc(O)c(O)c12` (configuration not stated), the GI50 was 35.2 µM in [1]; 32.3 µM in test [2]; 29.3 µM in [3]; 21.3 µM in [10]; 7.83 µM in [4]; 61.9 µM in [5]. In addition, the GI50 was 19.6 µM in [6], 19 µM in test [8] and 22.3 µM in [9]. Also, the TGI in test [1] was above 100 µM; in test [2], above 100 µM; in test [3] it was 90.3 µM; in [10], 61.8 µM; in [4], 32 µM; in [5] it was above 100 µM. Besides, the TGI in [6] stood at 78.7 µM; in [8], 81.1 µM; in [9], 50.6 µM.
`O=C1C(Cl)=C(Nc2cc(Cl)ccc2O)C(=O)N1Cc1ccccc1`: the GI50 in test [1] was 18.3 µM; in test [2], 16.2 µM; in [3], 38.6 µM; in test [10], 21.3 µM; in test [5], 32.7 µM; in test [6] it was 19 µM. Further, the GI50 was 25.4 µM in test [7], 27.5 µM in test [8] and 19 µM in test [9]. The TGI in test [1] is 38.4 µM; in test [2] it was 30.8 µM; in test [3], above 67.7 µM; in [10], 50.5 µM; in [5] it was above 54.6 µM; in test [6] it was 38.5 µM. The TGI in test [7] was above 61.2 µM; in [8], 64.6 µM; in test [9], 34.9 µM.
For `CC(C)(O)CCc1cccc(C(=O)c2cnn(-c3ccc(F)cc3)c2N)c1`, the GI50 in [1], in [2], in [3], in test [4], in test [5] and in test [6] was above 25 µM in each case. The GI50 in [7], in test [8] and in [9] was above 25 µM throughout. Also, the TGI in test [1], in [2], in [3], in test [4], in test [5] and in test [6] was above 25 µM each time. The TGI in test [7], in [8] and in [9] was above 25 µM each time.
Consider `C[C@@H](CS[As](C)C)C(=O)N1CCC[C@H]1C(=O)O`, for which the GI50 is 1.79 µM in test [1]; 0.207 µM in [2]; 0.0553 µM in [3]; 0.723 µM in [10]; 0.0923 µM in test [5]; 0.25 µM in test [6]. Besides, the results for the GI50 in test [7], in test [8] and in test [9] were 3.76 µM, 0.512 µM and 0.138 µM, respectively. Also, the TGI came to 5.32 µM in test [1]; 0.855 µM in test [2]; 0.272 µM in test [3]; 8.53 µM in test [10]; 0.8 µM in test [5]; 2.05 µM in test [6]. The TGI amounted to 31.2 µM in test [7], 2.25 µM in [8] and 0.468 µM in test [9].
As for `CN(C)CCNC(=O)c1cccc2c1Oc1cccc([N+](=O)[O-])c1O2`, the TGI in test [1] is 36.7 µM; in [2], 33 µM; in test [3], 76.1 µM; in test [4], 56.1 µM; in test [5] it was 32.5 µM; in test [6], 46.2 µM. Besides, the TGI in [7] was above 100 µM; in test [8], 40.5 µM; in test [9], 32.6 µM.
`C(=C\c1ccncc1)/c1ccncc1`: the GI50 in test [1] is above 100 µM; in test [2], above 100 µM; in [3], above 100 µM; in test [10], above 100 µM; in [5] it was 50.5 µM; in [6] it was above 100 µM. Moreover, the GI50 in [7], in test [8] and in test [9] was above 100 µM in each case. Moreover, the TGI in test [1], in test [2], in [3], in test [10], in test [5] and in test [6] was above 100 µM each time. The TGI in test [7], in [8] and in test [9] was above 100 µM each time.
Consider `O=C(N=Nc1c(Cl)c(O)c2ccccc2c1O)C(=O)Nc1cccc(C(F)(F)F)c1`, for which the GI50 was 6.05 µM in test [1]; 3.33 µM in test [2]; 3.08 µM in test [3]; 10.4 µM in test [4]; 1.53 µM in [5]; 3.24 µM in test [6]. Also, the GI50 in test [7] was 4.6 µM; in [8] it was 3.06 µM; in [9], 1.89 µM. Also, the TGI in test [1] came to 19.7 µM; in test [2] it was 16.2 µM; in [3] it was 17.1 µM; in [4], 22.9 µM; in [5], 12.2 µM; in test [6] it was 15.6 µM. Further, the figures for the TGI in [7], in [8] and in test [9] were 17.6 µM, 15.5 µM and 3.43 µM, respectively.
